Where two headings read alike, the source gives them in different places.
What was measured:
[1] = n = 10
[2] = system: MNU-induced bladder cancer; assay type: in vivo, female Fischer 344 rats
[3] = in vivo; cited from earlier work
bladder cancer = conditions: human, in vivo; cited from earlier work
[4] = system: MNU-induced cancerous lesions of the urinary bladder; assay type: in vivo, Fischer 344 rats
[5] = system: MNU-induced urinary bladder carcinoma; test: Second experiment (Table 5): histological assessment, MNU-induced bladder cancer; assay type: in vivo, rats
Protocol: The therapeutic effect in urinary bladder cancer in animals was assessed by histological evaluation of the tissues. The criteria for assessing normality of the tissues examined for all the experiments using the same animal model, that is, the experiments reported in Table 4, Table 5, Table 6-A, Table 6-B, Table 6-C and Table 6-D are: normal tissue, flat hyperplasia, papillary hyperplasia.
Flat hyperplasia and papillary hyperplasia are reactive changes of an inflammatory nature, though benign, and their occurrence in the experiments for assessment of new drugs in animals affected with cancer, indicates a reversal of the cancer process to non-cancerous stages.
Metaplasia is defined as the replacement of a normal functional tissue with another tissue with different structure, with loss of function, and, thus, is considered a form of premalignant lesion.
[…] animals (n=50) were used in the experiment. The therapeutic effect was assessed through histological assessment of tissues, and the toxicological effect of the compounds, through assessment of the presence or absence of urinary bleeding also called hematuria.
All the animals in the experiment were subjected to intravesical applications of 1.5 mg/kg of n-methyl-n-nitrosourea (MNU) dissolved in 0.30 mL of sodium citrate, using a catheter, for 7 weeks. One group (control) of 10 animals was given only saline solution ([…]), also intravesically and for an equal period.
The purpose of using n-methyl-n-nitrosourea (MNU) was to experimentally induce immunosuppression and subsequently producing urinary bladder carcinoma. After treatment with MNU, the animals were divided into 05 groups of 10 animals each.
After this procedure, all the 10 animals of each group were sacrificed and their urinary bladders were removed for collection of tissue fragments, which were embedded in paraffin and prepared for histological section, by the usual techniques.
For the histological examinations, sections (2 μm) of the tissue of the urinary bladder were cut using microtome Zeiss, mounted on microscope slides, and stained with hematoxylin-eosin (HE), for subsequent pathology assessment, quantification of cellular changes and comparison between control and treatment groups.

[6] = 10 mg/kg intravesical, 14 weeks; n = 10
[7] = rat, in vivo
[8] = system: bladder cancer induced by MNU; set-up: species or system Fischer rats; conditions: rat, in vivo
[9] = system: MNU-induced urinary bladder carcinoma; set-up: species or system rats; conditions: rat, in vivo
[10] = Table 5 experiment, intravesical
[11] = MNU-induced bladder cancer, 10 mg/kg intravesical (topical application), 14 weeks, n = 10

CC(=O)O[C@@]12CO[C@@H]1C[C@H](O)[C@@]1(C)C(=O)[C@H](O)C3=C(C)[C@@H](OC(=O)[C@H](O)[C@@H](NC(=O)OC(C)(C)C)c4ccccc4)C[C@@](O)([C@@H](OC(=O)c4ccccc4)[C@H]21)C3(C)C [Docetaxel]
Toxicology: (Hematuria), number of animals positive [1]: +10 | Flat hyperplasia, number of animals ([2]; rat, in vivo): 1 | High-grade intraepithelial carcinoma (carcinoma in situ-Tis), number of animals ([2]; rat, in vivo): 3 | Low grade Intraepithelial neoplasia, number of animals ([2]; rat, in vivo): 2 | Normal, number of animals ([2]; rat, in vivo): 1 | Papillary carcinoma (Ta), number of animals ([2]; rat, in vivo): 1 | Papillary hyperplasia, number of animals ([2]; rat, in vivo): 1 | Squamous metaplasia, number of animals ([2]; rat, in vivo): 1 | success rate / responders ([2]; rat, in vivo): 20%

COc1cccc2c1C(=O)c1c(O)c3c(c(O)c1C2=O)C[C@@](O)(C(=O)CO)C[C@@H]3O[C@H]1C[C@H](N)[C@H](O)[C@H](C)O1 [Doxorubicin]
Allergic reaction, (%) patients affected [3]: 1% | Chemical cystitis, (%) patients affected [3]: 25%

Nc1ccn([C@@H]2O[C@H](CO)[C@@H](O)C2(F)F)c(=O)n1 [Gemcitabine]
Toxicology: (Hematuria), number of animals in which absent [1]: in 06 | Toxicology: (Hematuria), number of animals positive [1]: +in 04 | Flat hyperplasia, number of animals ([2]; n = 10): 2 | High-grade intraepithelial carcinoma (carcinoma in situ-Tis), number of animals ([2]; n = 10): 4 | Low grade Intraepithelial neoplasia, number of animals ([2]; n = 10): 2 | Papillary hyperplasia, number of animals ([2]; n = 10): 2 | success rate / responders ([2]; rat, in vivo): 40%

CO[C@@]12[C@H](COC(N)=O)C3=C(C(=O)C(C)=C(N)C3=O)N1C[C@@H]1N[C@@H]12 [Mitomycin C]
Bladder contraction, (%) patients affected [3]: <2% | Hematuria, (%) patients affected [3]: 10% | Myelosuppression, (%) patients affected [3]: <10% | patients with no recurrence of cancer during the follow-up period (bladder cancer): 19% | recurrence rate after 5 years (bladder cancer): 64% | Flat hyperplasia, animals ([4]; n = 10): 1(10%) | High-grade intraepithelial carcinoma (carcinoma in situ-Tis), animals ([4]; n = 10): 3(30%) | Low-grade intraepithelial carcinoma, animals ([4]; n = 10): 6(60%) | Normal, animals ([4]; n = 10): 0% | animals that had cancer after treatment [5, 10]: 50%

S=P(N1CC1)(N1CC1)N1CC1 [Thiotepa]
Chemical cystitis, (%) patients affected [3]: 20% | Myelosuppression, (%) patients affected [3]: 10%

CCCCC(=O)OCC(=O)[C@]1(O)Cc2c(O)c3c(c(O)c2[C@@H](O[C@H]2C[C@H](NC(=O)C(F)(F)F)[C@H](O)[C@H](C)O2)C1)C(=O)c1c(OC)cccc1C3=O [Valrubicin, N-trifluoroacetyladriamycin-14-valerate]
Toxicology: Presence of hematuria, number of animals (Fischer 344, rat, in vivo): N = 10 | Toxicology: Presence of hematuria (n = 10): Positive | Toxicology: Presence of hematuria, % of animals (n = 10): 100% | Toxicology: (Hematuria) [6]: Positive | Toxicology: (Hematuria), % of animals [6]: (100%) | patients treated in whom results are seen (bladder cancer): 20% | Flat hyperplasia, animals ([4]; n = 10): 1(10%) | High-grade intraepithelial carcinoma (carcinoma in situ-Tis), animals ([4]; n = 10): 2(20%) | Low-grade intraepithelial carcinoma, animals ([4]; n = 10): 4(40%) | Papillary carcinoma (Ta), animals ([4]; n = 10): 1(10%) | Papillary hyperplasia, animals ([4]; n = 10): 1(10%) | Squamous metaplasia, animals ([4]; n = 10): 1(10%) | High grade intraepithelial neoplasia (carcinoma in situ-Tis), animals [5, 11]: 2 (20%) n (%) | Low grade intraepithelial neoplasia, animals [5, 11]: 5 (50%) n (%) | Normal, animals [5, 11]: 1 (10%) n (%) | Papillary carcinoma (Ta), animals [5, 11]: 1 (10%) n (%) | Squamous metaplasia, animals [5, 11]: 1 (10%) n (%) | therapeutic effectiveness / efficacy [5, 10]: 10%

Bacillus Calmette-Guérin [BCG]
Toxicology: Presence of hematuria (rat, in vivo): Positive | Toxicology: Presence of hematuria, % of animals (rat, in vivo): (100%) | Toxicology: Presence of hematuria, number of animals (rat, in vivo): n = 10 | patients affected by local toxicity (cystitis, macroscopic haematuria) [3]: up to 75% | patients with unwanted side effects (irritation, haematuria, dysuria) [3]: around 90% | withdrawal from treatment because of local toxicity [3]: around 15% | Toxicology: (Hematuria) [7]: Positive | Toxicology: (Hematuria), % of animals [7]: (100%) | degree of hematuria moderate, % of animals [7]: 80% | degree of hematuria severe, % of animals [7]: 20% | patients with no recurrence of cancer during the follow-up period (bladder cancer): 39% | rate of recurrence after 5 years (SWOG 8507) (bladder cancer): 60% | recurrence rate after 5 years (bladder cancer): 34% | relapse among patients who respond well in the early days (bladder cancer): 30% | Flat hyperplasia, animals ([4]; rat, in vivo): 2(20%) | High-grade intraepithelial carcinoma (carcinoma in situ-Tis), animals ([4]; rat, in vivo): 2(20%) | Low-grade intraepithelial carcinoma, animals ([4]; rat, in vivo): 3(30%) | Normal, animals ([4]; rat, in vivo): 0% | Papillary hyperplasia, animals ([4]; rat, in vivo): 2(20%) | Squamous metaplasia, animals ([4]; rat, in vivo): 1(10%) | Flat hyperplasia, number of animals [8]: 1 | High-grade Intraurothelial Neoplasia - Carcinoma in situ (pTis), number of animals [8]: 1 | Low-grade Intraurothelial Neoplasia, number of animals [8]: 1 | Normal, number of animals [8]: 1 | Papillary Carcinoma (pTa), number of animals [8]: 2 | Papillary hyperplasia, number of animals [8]: 3 | Urothelial carcinoma with lamina propria invasion (pT1), number of animals [8]: 2 | recurrent or refractory / malignant lesions [8]: 83% | recurrent or refractory lesions [8]: 17% | responders [8]: 83% | responders (absence of malignant lesions) [8]: 17% | animals with positive result / positive outcome (histopathology) [9]: 40% | Flat hyperplasia, number of animals ([2]; rat, in vivo): 2 | High-grade intraepithelial carcinoma (carcinoma in situ-Tis), number of animals ([2]; rat, in vivo): 3 | Low grade Intraepithelial neoplasia, number of animals ([2]; rat, in vivo): 2 | Normal, number of animals ([2]; rat, in vivo): 0 | Papillary carcinoma (Ta), number of animals ([2]; rat, in vivo): 1 | Papillary hyperplasia, number of animals ([2]; rat, in vivo): 2 | animals with recurrent/refractory malignant lesions ([2]; rat, in vivo): 06 | success rate / responders ([2]; rat, in vivo): 40%

From patent US20170173134A1 (priority 2011, published 2017)
